Source: patent US7166636B2, “Indole-amid derivatives which possess glycogen phosphorylase inhibitory activity” (AstraZeneca AB, priority 2002, dated 2007)

Key:
conscious dogs = conditions: following a glucagon challenge; cited from earlier work
hepatocytes = conditions: cited from earlier work; for glucose output: glucagon stimulated
db/db and ob/ob mice = db/db and ob/ob mice following treatment; cited from earlier work
[1] = biological target: T1, Human recombinant liver glycogen phosphorylase a (hrl GPa) (Homo sapiens, UniProt P06737); experiment: Glycogen phosphorylase a inhibition, glycogen degradation, multienzyme coupled assay (NADH fluorescence); assay type: biochemical; conditions: hrl GPa 20 nM, 6 hours at 30° C.
T1 sequence (P06737 1-847): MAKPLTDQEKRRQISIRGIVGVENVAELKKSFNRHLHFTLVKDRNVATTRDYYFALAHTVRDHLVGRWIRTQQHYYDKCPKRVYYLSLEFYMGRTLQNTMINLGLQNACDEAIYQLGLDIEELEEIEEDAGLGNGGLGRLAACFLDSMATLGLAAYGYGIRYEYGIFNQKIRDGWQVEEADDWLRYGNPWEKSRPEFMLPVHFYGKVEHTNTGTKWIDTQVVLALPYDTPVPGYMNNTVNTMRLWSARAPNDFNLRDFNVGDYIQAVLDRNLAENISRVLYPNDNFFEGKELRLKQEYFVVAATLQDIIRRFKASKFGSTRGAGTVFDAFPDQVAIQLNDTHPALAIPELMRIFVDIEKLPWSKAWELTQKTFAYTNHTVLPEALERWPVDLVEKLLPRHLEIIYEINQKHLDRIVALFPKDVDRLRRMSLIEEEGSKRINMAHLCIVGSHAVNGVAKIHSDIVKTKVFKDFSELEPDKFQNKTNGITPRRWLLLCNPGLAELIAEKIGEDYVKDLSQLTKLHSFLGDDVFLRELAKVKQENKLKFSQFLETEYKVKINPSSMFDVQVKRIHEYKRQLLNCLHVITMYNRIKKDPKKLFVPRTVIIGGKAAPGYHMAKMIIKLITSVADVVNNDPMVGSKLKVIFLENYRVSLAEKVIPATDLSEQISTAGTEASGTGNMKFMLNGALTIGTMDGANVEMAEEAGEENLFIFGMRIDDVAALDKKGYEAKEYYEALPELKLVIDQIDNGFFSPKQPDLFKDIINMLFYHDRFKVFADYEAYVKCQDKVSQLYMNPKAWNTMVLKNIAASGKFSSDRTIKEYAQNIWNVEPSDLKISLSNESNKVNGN
Description: The activity of the compounds is alternatively determined by measuring the inhibitory effect of the compounds on glycogen degradation, the production of glucose-1-phosphate from glycogen is monitored by the multienzyme coupled assay, as described in EP 0 846 464 A2, general method of Pesce et al (Pesce, M A, Bodourian, S H, Harris, R C, and Nicholson, J F (1977) Clinical Chemistry 23, […]). The reactions were in 384 well microplate format in a volume of 50 μl. The change in fluorescence due to the conversion of the co-factor NAD to NADH is measured at 340 nm excitation, 465 nm emission in a Tecan Ultra Multifunctional Microplate Reader. The reaction is in 50 OmM HEPES, 3.5 mM KH2PO4, 2.5 mM MgCl2, 2.5 mM ethylene glycol-bis(b-aminoethyl ether) N,N,N′,N′-tetraacetic acid, 100 mM KCl, 8 mM D-(+)-glucose pH7.2, containing 0.5 mM dithiothreitol, the assay buffer solution. Human recombinant liver glycogen phosphorylase a (hrl GPa) 20 nM is pre-incubated in assay buffer solution with 6.25 mM NAD, 1.25 mg type III glycogen at 1.25 mg ml^−1 the reagent buffer, for 30 minutes. […] The non-inhibited activity of GPa is measured in the presence of 10 μl 5% DMSO in assay buffer solution and maximum inhibition measured in the presence of 5 mgs ml^−1 N-ethylmaleimide. […] Relative Fluoresence Units (RFUs) are measured at 340 nm excitation, 465 nm emission. […]

Row | SMILES | arterial plasma glucose (conscious dogs) | hepatic glucose output (conscious dogs) | glucagon stimulated glycogenolysis (hepatocytes) | glucose output (hepatocytes) | plasma glucose concentration (db/db and ob/ob mice) | IC50 [1]
1 | CCN1C(C)=C(C(=O)OC(C)C)C(c2ccccc2Cl)C2=C1COC2=O (stereo not drawn) [Bay R 3401] | reduced significantly | reduced significantly | – | – | – | –
2 | CN(C)C(=O)[C@H](O)[C@H](Cc1ccccc1)NC(=O)c1cc2cc(Cl)ccc2[nH]1 [CP91149] | – | – | reduce | reduce | reduced, in a dose related manner | –
3 | O=C(N[C@@H](Cc1ccc(F)cc1)C(=O)N1CCC(O)CC1)c1cc2cc(Cl)ccc2[nH]1 [CP320626] | – | – | reduce | reduce | reduced, in a dose related manner | –
4 | COC(=O)c1ncoc1[C@H](Cc1ccccc1)NC(=O)c1cc2cc(Cl)ccc2[nH]1 [Example 1, Methyl (S)-5-{1-[(5-chloro-1H-indol-2-ylcarbonyl)amino]-2-phenylethyl}oxazole-4-carboxylate] | – | – | – | – | – | 2400 nM
